# Reference: patent publication US10947260B2, “Phosphinolactone derivatives and pharmaceutical uses thereof” (INSTITUT NATIONAL DE LA SANTE ET DE LA RECHERCHE MEDICALE …, priority 2016, dated 2021)
# How the values were obtained:
# [1] = system: mice treated with peptide Aβ25-35; test: In vivo screening of derivatives as neuroprotectors (spontaneous alternation, passive avoidance, ROS level), Aβ25-35 model; details: 0.3 mg/kg IP
# Experimental: FIG. 7: Screening of phosphinolactones as neuroprotectors in mice treated with peptide Aβ25-35: (a) spontaneous alternation; (b) passive avoidance step-through latency; (c) Levels of reactive oxygen species in hippocampus. The mice were given compound 3b (0.3, 0.7 mg/kg IP) or a dose of each compound (0.3 mg/kg IP) 20 min before I′Aβ25-35 or the control peptide Sc.Aβ (9 nmol ICV). The animals were tested in the Y-maze on Day 7 after the ICV injections and for passive avoidance on Days 8-9, and then sacrificed. In each graph at (a-c), the 50% protection level compared with the deficit induced by Aβ25-35 is plotted as a dotted line. It is to be noted that at (a), the column represents the median and the error bars represent the deviations 25%-75% (=asymmetric deviations). n=12 at (a, b) and 5-6 at (c). ANOVA on groups 1-4: F(3.63)=7.95, p<0.001 at (b); H=24.1, p<0.0001 at (c); F(3.44)=6.33, p<0.01 at (d). *p<0.05, **p<0.01, ***p<0.001 compared with group (Sc.Aβ+V); #p<0.05, ##p<0.01, ###p<0.001 compared with group (Aβ25-35+V); Dunnett test at (a, c) and Dunn at (b). The values of the groups 5-12 (screened compounds) were analysed by t-test at (a, c) or Mann-Whitney at (b).
# From the molecules derived from the synthesis, a panel of 8 derivatives was selected and screened for potential neuroprotective efficacy. The compounds were injected at a dose of 0.3 mg/kg IP, i.e. the maximum non-active dose of 3b and compared with 3b injected at 0.3 and 0.7 mg/kg IP. The compounds were injected […] before the Aß25-35 peptide, and the mice were tested for spontaneous alternation on Day 7, passive avoidance on Days 8 and 9 and the ROS level was measured in the hippocampus (FIG. 7). For each response (spontaneous alternation: FIG. 7a; step-through latency in passive avoidance: FIG. 7b, and DCF fluorescence level: FIG. 7c), a 50% level of the effect between the values of the ScAß and Aß25-35 animals was taken as criterion of efficacy. […] Compound 3c is an isomer at the position of the chlorine atom of 3b. Regarding compound 3n, this has a 5-pyrimidyl group attached to the phosphorus atom, and for compound 3l it is a 4-pyridinyl group.
# [2] = system: mice treated with scopolamine; test: Passive avoidance, scopolamine amnesia model; format: in vivo
# Experimental: (§1) FIG. 5: Anti-amnesic effect of compound 3b in mice treated with scopolamine: (a, b) spontaneous alternation in Y-maze, and (c, d) passive avoidance. The mice were given compound 3b (0.03-1.5 mg/kg IP) 10 min before scopolamine (0.5 mg/kg SC), 20 min before the Y-maze session or passive avoidance training. Y-maze test: (a) spontaneous alternation and (b) total number of arm entries; retention of passive avoidance: (c) step-through latency and (d) escape latency. ANOVA: F(6.94)=5.32, p<0.0001 at (a); F(6.94)=10.6, p<0.0001 at (b); H=31.4, p<0.0001 at (c); H=24.3, p<0.001 at (d); n=12-19 per group. *p<0.05, **p<0.01, ***p<0.001 compared with group (Sc.Aβ+V); #p<0.05, ##p<0.01, ###p<0.001 compared with group (Aβ25-35+V); Dunnett test at (a, b) and Dunn at (c, d).
# FIG. 6: Analysis of the antagonism of anti-amnesic effects of compound 3b in mice treated with scopolamine: (a, c, e) spontaneous alternation in Y-maze, and (b, d, f) step-through latency at recall session of passive avoidance. The mice were treated with methyllycaconitine (MLA, 1 or 3 mg/kg IP), dihydro-ß-erythroidine (DHßE, 1 or 3 mg/kg IP), or NE100 (1 mg/kg IP), simultaneously with compound 3b (0.1 mg/kg IP) 10 min before scopolamine (S, 0.5 mg/kg SC), 20 min before behavioural session. […]
# The apparatus contained two compartments (15×20×15 cm in height) with one light part having walls in white PVC and the other dark with walls in black PVC and a grid floor. […] Step-through latency (STL) i.e. the time taken to enter the dark compartment and the number of cries, were recorded. […] Step-through latency was recorded up to 300 s.
# (§2) Finally, a first mechanistic analysis of the pharmacological effect in vivo of compound 3b was carried out. With the objective of confirming that the compound, neuroprotective against amyloid toxicity, could also be anti-amnesic in a pharmacological amnesia model, we first determined its effectiveness against the amnesic effects of scopolamine. […]
# [3] = system: mice treated with scopolamine; test: Spontaneous alternation in Y-maze, scopolamine amnesia model; format: in vivo
# Experimental: as §1
# FIG. 6: Analysis of the antagonism of anti-amnesic effects of compound 3b in mice treated with scopolamine: (a, c, e) spontaneous alternation in Y-maze, and (b, d, f) step-through latency at recall session of passive avoidance. The mice were treated with methyllycaconitine (MLA, 1 or 3 mg/kg IP), dihydro-ß-erythroidine (DHßE, 1 or 3 mg/kg IP), or NE100 (1 mg/kg IP), simultaneously with compound 3b (0.1 mg/kg IP) 10 min before scopolamine (S, 0.5 mg/kg SC), 20 min before behavioural session. ANOVA: F(5.87)=7.19, p<0.0001 at (a); H=31.3, p<0.0001 at (b); F(5.82)=5.82, p<0.0001 at (c); H=28.8, p<0.0001 at (d); F(4.77)=10.0, p<0.0001 at (e); H=30.5, p<0.0001 at (f); n=12-17 per group. *p<0.05, **p<0.01, ***p<0.001 compared with group (Sc.Aβ+V); #p<0.05, ##p<0.01, ###p<0.001 compared with group (Aβ25-35+V); Dunnett test at (a, b) and Dunn at (c, d).
# The animals were tested for spontaneous alternation performance in a Y-maze, an index of spatial working memory. The Y-maze was in grey PVC. Each arm was 40 cm long, 13 cm high, 3 cm wide at the base and 10 cm wide in the upper part, and converging at an equal angle. Each mouse was placed at one end of an arm and was able to move freely through the maze during an 8-min session. The series of arm entries, including any returns in the same arm were visually analysed. Alternation is defined as being consecutive entries in three different arms. The maximum number of alternations is therefore the total number of arm entries less two, and alternation percentage is calculated as (actual alternations/maximum possible alternations)×100. […]
# as §2
# mice = test: Forced swim test; format: in vivo
# Experimental: FIG. 13: Assays of compound 3b as positive modulator of the sigma-1 protein. […] Male Swiss mice aged 7 weeks (n=10-12 per group) were forced to swim for 15 min on Day 1 and 6 min on Day 2. They were given NE-100 (10 mg/kg ip), 10 min before compound 3b (10 mg/kg ip) and 20 min before the session of Day 2. Immobility was measured over the last 5 minutes of the session. The vehicle solution was distilled water. F(3.42)=4.45, p<0.01; **p<0.01 vs. group V/V, ##p<0.01 vs. group V/3b, Dunnet test. […] Wild-type mice (Wt, n=14-15) and S1R KO mice (n=9-10) were forced to swim 15 min on Day 1 and 6 min on Day 2. They were given compound 3b (10 mg/kg ip) 20 min before the session on Day 2. Immobility was measured during the last 5 minutes of the session. The vehicle solution was distilled water. F(3.49)=6.64, p<0.001; **p<0.01 vs. group Wt/V, Dunnett test. […] Male Swiss mice aged 7 weeks (n=8-23 per group) were forced to swim for 15 min on Day 1 and 6 min on Day 2. They were given igmesine (10, 30 mg/kg ip) and/or compound 3b (10 mg/kg ip) 20 min before the session on Day 2. NE-100 (10 mg/kg ip) was injected 10 min before igmesine and compound 3b. Immobility was measured during the last 5 minutes of the session. The vehicle solution was distilled water. F(6.90)=5.59, p<0.0001; ***p<0.001 vs. group V, ##p<0.01 vs. group V/Igmesine (10)+3B (5), Dunnett test.
# [4] = system: mice treated with Aβ25-35; details: IP; Aβ25-35 model; cited from earlier work
# [5] = antagonist at the two doses tested (1 or 3 mg/kg IP) with 3b 0.1 mg/kg IP
# [6] = antagonist 1 mg/kg IP with 3b 0.1 mg/kg IP
compound,measurement,setting,value
"CC1(C)COP(=O)(c2ccncc2)C(C)(C)N1 (racemic) [Compound 3l, (±)-2-(Pyridin-4-yl)-2-oxo-3,3,5,5-tetramethyl-[1,4,2]-oxazaphosphinane]","criterion of efficacy: 50% level of the effect between ScAβ and Aβ25-35 animals (spontaneous alternation, step-through latency, DCF fluorescence)",[1],met the criterion for the 3 parameters
"CC1(C)COP(=O)(c2cncnc2)C(C)(C)N1 (racemic) [Compound 3n, (±)-2-(Pyrimidin-5-yl)-2-oxo-3,3,5,5-tetramethyl-[1,4,2]-oxazaphosphinane]","criterion of efficacy: 50% level of the effect between ScAβ and Aβ25-35 animals (spontaneous alternation, step-through latency, DCF fluorescence)",[1],met the criterion for the 3 parameters
"CO[C@H]1CC=C2CCN3CCC4=C(CC(=O)OC4)[C@]23C1 [DhßE, dihydro-β-erythroidine]","antagonism of the anti-amnesic effect of compound 3b, passive avoidance",[2]; [5],ineffective
same,"antagonism of the anti-amnesic effect of compound 3b, spontaneous alternation",[3]; [5],ineffective
"CCN1C[C@]2(COC(=O)c3ccccc3N3C(=O)C[C@H](C)C3=O)CC[C@H](OC)[C@@]34[C@@H]5C[C@H]6[C@H](OC)[C@@H]5[C@](O)(C[C@@H]6OC)[C@@](O)([C@@H](OC)[C@H]23)[C@@H]14 [MLA, methyllycaconitine]","antagonism of the anti-amnesic effect of compound 3b, passive avoidance",[2]; [6],attenuated the effect
same,"antagonism of the anti-amnesic effect of compound 3b, spontaneous alternation",[3]; antagonist 3 mg/kg IP with 3b 0.1 mg/kg IP,blocked the anti-amnesic effect of compound 3b
CCCN(CCC)CCc1ccc(OC)c(OCCc2ccccc2)c1 [NE100],"antagonism of the anti-amnesic effect of compound 3b, passive avoidance",[2]; [6],attenuated the effect
same,blockade of the antidepressant effect of compound 3b,"mice; NE-100 10 mg/kg ip, 10 min before 3b 10 mg/kg ip",blocked
same,"antagonism of the anti-amnesic effect of compound 3b, spontaneous alternation",[3]; [6],blocked the effect of compound 3b
CCC(C/C=C/c1ccccc1)(c1ccccc1)N(C)CC1CC1 (centres unmarked) [igmesine],activity in forced swim test,mice; 10 mg/kg,not active
CC12CC3CC(C)(C1)CC(N)(C3)C2 [memantine],active dose of reference molecules in this model,[4],1 mg/kg
